Reference: patent publication EP0584797A2, “Novel cephalosporin compounds and processes for the preparation thereof” (LUCKY LTD., priority 1992, dated 1994)
In brackets after ≈: the same amount, converted by molar mass.

Experiments:
Assay in all cases: minimal inhibitory concentration, two-fold agar dilution
Type in all cases: cell-based
[1] = system: Proteus mirabilis ATCC 25933; settings: ATCC25933, Muller-Hinton agar, 37°C, 20 hours, read-out: MIC values against the standard strains
In short: (§1)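 Compounds were serially diluted two-fold into Mueller-Hinton agar, and each plate was spot-inoculated with the test strain at 10⁷ CFU per ml. Plates were incubated at 37°C for 20 hours before MIC values were read.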

[2] = system: Streptococcus faecalis ATCC 29212; settings: Enterococcus faecalis, ATCC29212; Muller-Hinton agar; 37°C; 20 hours; read-out: MIC values against the standard strains
In short: as §1

[3] = system: Staphylococcus epidermidis ATCC 12228; settings: ATCC12228, Muller-Hinton agar, 37°C, 20 hours, read-out: MIC values against the standard strains
In short: as §1

[4] = system: Acinetobacter calcoaceticus ATCC 15437; settings: ATCC15437, Muller-Hinton agar, 37°C, 20 hours, read-out: MIC values against the standard strains
In short: as §1

[5] = system: Morganella morganii ATCC 8076h; settings: ATCC8076H, Muller-Hinton agar, 37°C, 20 hours, read-out: MIC values against the standard strains
In short: as §1

[6] = system: Serratia marcescens ATCC 27117; settings: ATCC27117, Muller-Hinton agar, 37°C, 20 hours, read-out: MIC values against the standard strains
In short: as §1

[7] = system: Micrococcus luteus ATCC 9341; settings: ATCC9341, Muller-Hinton agar, 37°C, 20 hours, read-out: MIC values against the standard strains
In short: as §1

[8] = system: Pseudomonas aeruginosa ATCC 25619; settings: ATCC25619, Muller-Hinton agar, 37°C, 20 hours, read-out: MIC values against the standard strains
In short: as §1

[9] = system: Shigella flexneri ATCC 11836; settings: ATCC11836, Muller-Hinton agar, 37°C, 20 hours, read-out: MIC values against the standard strains
In short: as §1

[10] = system: Shigella sonnei ATCC 11060; settings: ATCC11060, Muller-Hinton agar, 37°C, 20 hours, read-out: MIC values against the standard strains
In short: as §1

[11] = system: Escherichia coli ATCC 10536; settings: ATCC10536, Muller-Hinton agar, 37°C, 20 hours, read-out: MIC values against the standard strains
In short: as §1

[12] = system: Proteus vulgaris ATCC 6059; settings: ATCC6059, Muller-Hinton agar, 37°C, 20 hours, read-out: MIC values against the standard strains
In short: as §1

[13] = system: Klebsiella pneumoniae ATCC 10031; settings: ATCC10031, Muller-Hinton agar, 37°C, 20 hours, read-out: MIC values against the standard strains
In short: as §1

[14] = system: Bacillus megaterium ATCC 9885; settings: Priestia megaterium, ATCC9885; Muller-Hinton agar; 37°C; 20 hours; read-out: MIC values against the standard strains
In short: as §1

[15] = system: Staphylococcus aureus ATCC 10537; settings: ATCC10537, Muller-Hinton agar, 37°C, 20 hours, read-out: MIC values against the standard strains
In short: as §1

[16] = system: Pseudomonas aeruginosa ATCC 27853; settings: ATCC27853, Muller-Hinton agar, 37°C, 20 hours, read-out: MIC values against the standard strains
In short: as §1

[17] = system: Staphylococcus aureus ATCC 6538p; settings: ATCC6538P, Muller-Hinton agar, 37°C, 20 hours, read-out: MIC values against the standard strains
In short: as §1

[18] = system: Citrobacter freundii ATCC 8090; settings: ATCC8090, Muller-Hinton agar, 37°C, 20 hours, read-out: MIC values against the standard strains
In short: as §1

[19] = system: Pseudomonas aeruginosa ATCC 10145; settings: ATCC10145, Muller-Hinton agar, 37°C, 20 hours, read-out: MIC values against the standard strains
In short: as §1

[20] = system: Enterobacter aerogenes ATCC 29751; settings: Klebsiella aerogenes, ATCC29751; Muller-Hinton agar; 37°C; 20 hours; read-out: MIC values against the standard strains
In short: as §1

[21] = system: Escherichia coli ATCC 25922; settings: ATCC25922, Muller-Hinton agar, 37°C, 20 hours, read-out: MIC values against the standard strains
In short: as §1

[22] = system: Providencia rettgeri ATCC 9250; settings: ATCC9250, Muller-Hinton agar, 37°C, 20 hours, read-out: MIC values against the standard strains
In short: as §1

[23] = system: Salmonella typhimurium ATCC 14028; settings: Salmonella enterica; Muller-Hinton agar; 37°C; 20 hours; read-out: MIC values against the standard strains
In short: as §1

[24] = system: Enterobacter cloacae ATCC 27508; settings: ATCC27508, Muller-Hinton agar, 37°C, 20 hours, read-out: MIC values against the standard strains
In short: as §1

[25] = system: Bacillus cereus ATCC 11778; settings: ATCC11778, Muller-Hinton agar, 37°C, 20 hours, read-out: MIC values against the standard strains
In short: as §1

| SMILES | MIC [1] [µg/mL] | MIC [2] [µg/mL] | MIC [3] [µg/mL] | MIC [4] [µg/mL] | MIC [5] [µg/mL] | MIC [6] [µg/mL] | MIC [7] [µg/mL] | MIC [8] [µg/mL] | MIC [9] [µg/mL] | MIC [10] [µg/mL] | MIC [11] [µg/mL] | MIC [12] [µg/mL] | MIC [13] [µg/mL] | MIC [14] [µg/mL] | MIC [15] [µg/mL] | MIC [16] [µg/mL] | MIC [17] [µg/mL] | MIC [18] [µg/mL] | MIC [19] [µg/mL] | MIC [20] [µg/mL] | other results |
| --- | --- | --- | --- | --- | --- | --- | --- | --- | --- | --- | --- | --- | --- | --- | --- | --- | --- | --- | --- | --- | --- |
| CCO/N=C(\C(=O)N[C@@H]1C(=O)N2C(C(=O)[O-])=C(CSc3nc(N)cc[n+]3C)CS[C@H]12)c1nsc(N)n1 [Example 6, 7-[(Z)-2-(5-amino-1,2,4-thiadiazol-3-yl)-2-(ethoxyimino)acetamido]-3-(4-amino-1-methylpyrimidinium-2-yl)thiomethyl-3-cephem-4-carboxylate] | 0.5 (≈ 0.906 µM) | 32 (≈ 58 µM) | 0.13 (≈ 0.236 µM) | 1 (≈ 1.81 µM) | ≤ 0.008 | 0.5 (≈ 0.906 µM) | 0.063 (≈ 0.114 µM) | 0.5 (≈ 0.906 µM) | 0.063 (≈ 0.114 µM) | 0.25 (≈ 0.453 µM) | 0.063 (≈ 0.114 µM) | 0.5 (≈ 0.906 µM) | ≤ 0.008 | 0.063 (≈ 0.114 µM) | 0.13 (≈ 0.236 µM) | 2 (≈ 3.63 µM) | 0.13 (≈ 0.236 µM) | 0.063 (≈ 0.114 µM) | 4 (≈ 7.25 µM) | 0.016 (≈ 0.029 µM) | MIC [21]: 0.063 µg/mL (≈ 0.114 µM); MIC [22]: ≤ 0.008 µg/mL; MIC [23]: 0.5 µg/mL (≈ 0.906 µM); MIC [24]: 0.063 µg/mL (≈ 0.114 µM); MIC [25]: 16 µg/mL (≈ 29 µM) |
| COc1cc(N)nc(SCC2=C(C(=O)[O-])N3C(=O)[C@@H](NC(=O)/C(=N\OC(C)(C)C(=O)O)c4csc(N)n4)[C@H]3SC2)[n+]1C [Example 17, 7-[(Z)-2-(2-aminothiazol-4-yl)-2-(carboxyprop-2-oxyimino)acetamido]-3-(4-amino-6-methoxy-1-methylpyrimidinium-2-yl)thiomethyl-3-cephem-4-carboxylate] | 0.063 (≈ 0.0986 µM) | > 128 | 1 (≈ 1.57 µM) | 2 (≈ 3.13 µM) | 0.016 (≈ 0.0251 µM) | 0.25 (≈ 0.391 µM) | 0.5 (≈ 0.783 µM) | 1 (≈ 1.57 µM) | 0.031 (≈ 0.0485 µM) | 0.13 (≈ 0.204 µM) | 0.063 (≈ 0.0986 µM) | 0.13 (≈ 0.204 µM) | 0.063 (≈ 0.0986 µM) | 0.25 (≈ 0.391 µM) | 1 (≈ 1.57 µM) | 2 (≈ 3.13 µM) | 4 (≈ 6.26 µM) | 0.13 (≈ 0.204 µM) | 4 (≈ 6.26 µM) | 4 (≈ 6.26 µM) | MIC [21]: 0.13 µg/mL (≈ 0.204 µM); MIC [22]: 0.13 µg/mL (≈ 0.204 µM); MIC [23]: 0.25 µg/mL (≈ 0.391 µM); MIC [24]: 0.016 µg/mL (≈ 0.0251 µM); MIC [25]: 128 µg/mL (≈ 200 µM) |
| CC[n+]1c(SCC2=C(C(=O)[O-])N3C(=O)[C@@H](NC(=O)/C(=N\OC(C)(C)C(=O)O)c4csc(N)n4)[C@H]3SC2)nc(N)c(N)c1N [Example 11, 7-[(Z)-2-(2-aminothiazol-4-yl)-2-(carboxyprop-2-oxyimino)acetamido]-3-(4,5,6-triamino-1-ethylpyrimidinium-2-yl)thiomethyl-3-cephem-4-carboxylate] | 0.25 (≈ 0.383 µM) | > 128 | 2 (≈ 3.06 µM) | 8 (≈ 12.3 µM) | ≤ 0.008 | 1 (≈ 1.53 µM) | 0.13 (≈ 0.199 µM) | 2 (≈ 3.06 µM) | 0.063 (≈ 0.0965 µM) | 1 (≈ 1.53 µM) | 0.031 (≈ 0.0475 µM) | 0.25 (≈ 0.383 µM) | 0.063 (≈ 0.0965 µM) | 0.13 (≈ 0.199 µM) | 2 (≈ 3.06 µM) | 4 (≈ 6.13 µM) | 4 (≈ 6.13 µM) | 0.13 (≈ 0.199 µM) | 8 (≈ 12.3 µM) | 2 (≈ 3.06 µM) | MIC [21]: 0.063 µg/mL (≈ 0.0965 µM); MIC [22]: 0.063 µg/mL (≈ 0.0965 µM); MIC [23]: 1 µg/mL (≈ 1.53 µM); MIC [24]: 0.031 µg/mL (≈ 0.0475 µM); MIC [25]: 128 µg/mL (≈ 196 µM) |
